Experimental data from article PMC5811606, “Characterization of ^111In-labeled Glucose-Dependent Insulinotropic Polypeptide as a Radiotracer for Neuroendocrine Tumors” (Scientific Reports, 2018).
Like-named read-outs stand apart in the source and are kept apart here.

Experiment: Peptide dose escalation study, BHK-GIPR tumor mice
Assay type: in vivo, BALB/c nude mice
Details: female, mouse, iv, total radioactivity, BHK-GIPR tumor BALB/c nude mice, i.v., 4 h p.i., mean n=5
Description: All animal experiments were approved by the Animal Welfare Body of the Radboud University, Nijmegen, The Netherlands and carried out in accordance with their guidelines. Six to eight weeks old, female BALB/c nude mice and C3H mice were purchased from Janvier labs (Le Genest Saint Isle, France). For all in vivo experiments, 6-8 weeks old female BALB/c nude mice were injected subcutaneously in the right shoulder with 0.2 ml of a 2.5 × 10^7 cells/ml suspension of BHK-GIPR transfected cells or with 0.2 ml of a 2.5 × 10^7 cells/ml suspension of NES2Y cells mixed with matrigel (2:1) in the right shoulder. When the tumor reached a diameter of 2-5 mm, mice were randomly divided in groups.
To determine the optimal peptide dose of [Lys^37(DTPA)]N-acetyl-GIP1-42, BHK-GIPR transfected tumor bearing BALB/c nude mice (n = 5/group) were injected intravenously with approximately 3 MBq [Lys^37(^111In-DTPA)]N-acetyl-GIP1-42 (0.05 µg) in the tail vein and were co-injected with escalating amounts of unlabeled [Lys^37(DTPA)]N-acetyl-GIP1-42 (0.05 µg – 1.95 µg), resulting in final peptide doses ranging from 0.1 to 2 µg/mouse (0.02 – 0.4 nmol/mouse) (5 groups, n = 5/group). Four hours after injection, mice were euthanized by CO2/O2 suffocation and tumors and other relevant tissues (heart, muscle, lung, spleen, pancreas, kidney, liver, stomach and duodenum) were dissected, weighed and measured in a well type gamma counter. The percentage injected dose per gram of tissue (%ID/g) was determined for each tissue.

For `CC[C@H](C)[C@H](NC(=O)[C@H](CO)NC(=O)[C@H](Cc1ccc(O)cc1)NC(=O)[C@H](CC(=O)O)NC(=O)[C@H](CO)NC(=O)[C@@H](NC(=O)[C@H](Cc1ccccc1)NC(=O)[C@@H](NC(=O)CNC(=O)[C@H](CCC(=O)O)NC(=O)[C@H](C)NC(=O)[C@H](Cc1ccc(O)cc1)NC(C)=O)[C@@H](C)O)[C@@H](C)CC)C(=O)N[C@@H](C)C(=O)N[C@@H](CCSC)C(=O)N[C@@H](CC(=O)O)C(=O)N[C@@H](CCCCN)C(=O)N[C@H](C(=O)N[C@@H](Cc1c[nH]cn1)C(=O)N[C@@H](CCC(N)=O)C(=O)N[C@@H](CCC(N)=O)C(=O)N[C@@H](CC(=O)O)C(=O)N[C@@H](Cc1ccccc1)C(=O)N[C@H](C(=O)N[C@@H](CC(N)=O)C(=O)N[C@@H](Cc1c[nH]c2ccccc12)C(=O)N[C@@H](CC(C)C)C(=O)N[C@@H](CC(C)C)C(=O)N[C@@H](C)C(=O)N[C@@H](CCC(N)=O)C(=O)N[C@@H](CCCCN)C(=O)NCC(=O)N[C@@H](CCCCN)C(=O)N[C@@H](CCCCN)C(=O)N[C@@H](CC(N)=O)C(=O)N[C@@H](CC(=O)O)C(=O)N[C@@H](Cc1c[nH]c2ccccc12)C(=O)N[C@@H](CCCCNC(=O)CN(CCN(CCN(CC(=O)O)CC(=O)O)CC(=O)O)CC(=O)O)C(=O)N[C@@H](Cc1c[nH]cn1)C(=O)N[C@@H](CC(N)=O)C(=O)N[C@H](C(=O)N[C@H](C(=O)N[C@@H](CCC(N)=O)C(=O)O)[C@@H](C)O)[C@@H](C)CC)C(C)C)[C@@H](C)CC` [[Lys^37(^111In-DTPA)]N-acetyl-GIP1-42, metal not drawn], which tissue uptake at 4 h (pancreas, 0.1 ug/mouse, peptide dose 0.1 µg, read-out: Pancreas uptake) is on record?
The tissue uptake at 4 h was 0.169 %ID/g.

What about the tissue uptake at 4 h (pancreas, 0.2 ug/mouse, peptide dose 0.2 µg, read-out: Pancreas uptake) of the same molecule?
Its tissue uptake at 4 h is 0.234 %ID/g.

What about the tissue uptake at 4 h (pancreas, 0.5 ug/mouse, peptide dose 0.5 µg, read-out: Pancreas uptake) of the same molecule?
The tissue uptake at 4 h was 0.199 %ID/g.

What about the tissue uptake at 4 h (pancreas, 1 ug/mouse, peptide dose 1 µg, read-out: Pancreas uptake) of the same molecule?
Its tissue uptake at 4 h is 0.257 %ID/g.

And the tissue uptake at 4 h (pancreas, 2 ug/mouse, peptide dose 2 µg, read-out: Pancreas uptake)?
Its tissue uptake at 4 h is 0.213 %ID/g.

What about the tissue uptake at 4 h (spleen, 0.1 ug, peptide dose 0.1 µg, read-out: Spleen uptake) of the same molecule?
The tissue uptake at 4 h was 0.648 %ID/g.

What about the tissue uptake at 4 h (spleen, 0.2 ug, peptide dose 0.2 µg, read-out: Spleen uptake) of the same molecule?
Its tissue uptake at 4 h is 0.692 %ID/g.

And the tissue uptake at 4 h (spleen, 0.5 ug, peptide dose 0.5 µg, read-out: Spleen uptake)?
The tissue uptake at 4 h was 0.594 %ID/g.

And the tissue uptake at 4 h (spleen, 1 ug, peptide dose 1 µg, read-out: Spleen uptake)?
The tissue uptake at 4 h was 0.781 %ID/g.

And the tissue uptake at 4 h (spleen, 2 ug, peptide dose 2 µg, read-out: Spleen uptake)?
Its tissue uptake at 4 h is 0.713 %ID/g.

What about the tissue uptake at 4 h (stomach, 0.1 ug/mouse, peptide dose 0.1 µg, read-out: Stomach uptake) of the same molecule?
The tissue uptake at 4 h was 0.41 %ID/g.

And the tissue uptake at 4 h (stomach, 0.2 ug/mouse, peptide dose 0.2 µg, read-out: Stomach uptake)?
The tissue uptake at 4 h was 0.418 %ID/g.

What about the tissue uptake at 4 h (stomach, 0.5 ug/mouse, peptide dose 0.5 µg, read-out: Stomach uptake) of the same molecule?
The tissue uptake at 4 h was 0.411 %ID/g.

And the tissue uptake at 4 h (stomach, 1 ug/mouse, peptide dose 1 µg, read-out: Stomach uptake)?
The tissue uptake at 4 h was 0.527 %ID/g.

And the tissue uptake at 4 h (stomach, 2 ug/mouse, peptide dose 2 µg, read-out: Stomach uptake)?
Its tissue uptake at 4 h is 0.437 %ID/g.

What about the tissue to tissue ratio at 4 h (tumor/blood, 2 ug/mouse, peptide dose 2 µg, read-out: Tumor/Blood) of the same molecule?
Its tissue to tissue ratio at 4 h is 38.

What about the tissue to tissue ratio at 4 h (tumor/heart, 0.1 ug/mouse, peptide dose 0.1 µg, read-out: Tumor/Heart) of the same molecule?
Its tissue to tissue ratio at 4 h is 35.6.

What about the tissue to tissue ratio at 4 h (tumor/heart, 0.2 ug/mouse, peptide dose 0.2 µg, read-out: Tumor/Heart) of the same molecule?
Its tissue to tissue ratio at 4 h is 33.1.

And the tissue to tissue ratio at 4 h (tumor/heart, 0.5 ug/mouse, peptide dose 0.5 µg, read-out: Tumor/Heart)?
The tissue to tissue ratio at 4 h was 14.6.

And the tissue to tissue ratio at 4 h (tumor/heart, 1 ug/mouse, peptide dose 1 µg, read-out: Tumor/Heart)?
Its tissue to tissue ratio at 4 h is 16.4.

And the tissue to tissue ratio at 4 h (tumor/heart, 2 ug/mouse, peptide dose 2 µg, read-out: Tumor/Heart)?
The tissue to tissue ratio at 4 h was 11.2.

What about the tissue to tissue ratio at 4 h (tumor/kidney, 0.1 ug/mouse, peptide dose 0.1 µg, read-out: Tumor/Kidney) of the same molecule?
The tissue to tissue ratio at 4 h was 0.02.

What about the tissue to tissue ratio at 4 h (tumor/kidney, 0.2 ug/mouse, peptide dose 0.2 µg, read-out: Tumor/Kidney) of the same molecule?
The tissue to tissue ratio at 4 h was 0.019.

And the tissue to tissue ratio at 4 h (tumor/kidney, 0.5 ug/mouse, peptide dose 0.5 µg, read-out: Tumor/Kidney)?
The tissue to tissue ratio at 4 h was 0.011.

And the tissue to tissue ratio at 4 h (tumor/kidney, 1 ug/mouse, peptide dose 1 µg, read-out: Tumor/Kidney)?
Its tissue to tissue ratio at 4 h is 0.01.

And the tissue to tissue ratio at 4 h (tumor/kidney, 2 ug/mouse, peptide dose 2 µg, read-out: Tumor/Kidney)?
The tissue to tissue ratio at 4 h was 0.008.

What about the tissue to tissue ratio at 4 h (tumor/lung, 0.1 ug/mouse, peptide dose 0.1 µg, read-out: Tumor/Lung) of the same molecule?
The tissue to tissue ratio at 4 h was 13.

And the tissue to tissue ratio at 4 h (tumor/lung, 0.2 ug/mouse, peptide dose 0.2 µg, read-out: Tumor/Lung)?
Its tissue to tissue ratio at 4 h is 10.

And the tissue to tissue ratio at 4 h (tumor/lung, 0.5 ug/mouse, peptide dose 0.5 µg, read-out: Tumor/Lung)?
Its tissue to tissue ratio at 4 h is 4.18.

What about the tissue to tissue ratio at 4 h (tumor/lung, 1 ug/mouse, peptide dose 1 µg, read-out: Tumor/Lung) of the same molecule?
The tissue to tissue ratio at 4 h was 4.81.

What about the tissue to tissue ratio at 4 h (tumor/lung, 2 ug/mouse, peptide dose 2 µg, read-out: Tumor/Lung) of the same molecule?
The tissue to tissue ratio at 4 h was 3.58.

And the tissue to tissue ratio at 4 h (tumor/muscle, 0.1 ug/mouse, peptide dose 0.1 µg, read-out: Tumor/Muscle)?
Its tissue to tissue ratio at 4 h is 33.7.

What about the tissue to tissue ratio at 4 h (tumor/muscle, 0.2 ug/mouse, peptide dose 0.2 µg, read-out: Tumor/Muscle) of the same molecule?
The tissue to tissue ratio at 4 h was 41.1.

What about the tissue to tissue ratio at 4 h (tumor/muscle, 0.5 ug/mouse, peptide dose 0.5 µg, read-out: Tumor/Muscle) of the same molecule?
The tissue to tissue ratio at 4 h was 19.1.

What about the tissue to tissue ratio at 4 h (tumor/muscle, 1 ug/mouse, peptide dose 1 µg, read-out: Tumor/Muscle) of the same molecule?
Its tissue to tissue ratio at 4 h is 20.9.

What about the tissue to tissue ratio at 4 h (tumor/muscle, 2 ug/mouse, peptide dose 2 µg, read-out: Tumor/Muscle) of the same molecule?
The tissue to tissue ratio at 4 h was 12.2.
